Measurements as given in the CheMixHub drug solubility set.

Assay: xn = mol fraction of the nth substance listed, in the solute-free solvent

O=[N+]([O-])c1cc[nH]n1 + CCCO + O
solubility (g/100 g solution)
Conditions | 283.15 K | 288.15 K | 293.15 K | 298.15 K | 303.15 K | 308.15 K | 313.15 K | 318.15 K | 323.15 K
x2 = 0.03225 | 0.274 | 0.349 | 0.477 | 0.616 | 0.783 | 1.04 | 1.33 | 1.86 | 2.35
x2 = 0.06974 | 0.307 | 0.377 | 0.489 | – | 0.772 | 1.01 | 1.29 | 1.68 | 2.18
x2 = 0.1139 | 0.626 | 0.769 | 0.945 | 1.16 | 1.45 | 1.78 | 2.31 | 2.95 | 3.78
x2 = 0.1666 | 0.964 | 1.19 | 1.43 | 1.76 | 2.13 | 2.64 | 3.29 | 4.2 | 5.32
x2 = 0.2307 | 1.35 | 1.63 | 1.97 | 2.36 | 2.87 | 3.48 | 4.23 | 5.37 | 6.75
x2 = 0.3103 | 1.73 | 2.03 | 2.41 | 2.87 | 3.44 | 4.09 | 4.96 | 6.34 | 7.73
x2 = 0.4117 | 2.08 | 2.44 | 2.82 | 3.32 | 3.87 | 4.69 | 5.64 | 6.61 | 8.31
x2 = 0.5454 | 2.49 | 2.85 | 3.25 | 3.76 | 4.35 | 5.08 | 6.07 | 7.31 | 8.56
x2 = 0.7297 | 2.69 | 3.11 | 3.53 | 4 | 4.54 | 5.23 | 6.03 | 7.19 | 8.45

Cc1ccc(Nc2nccc(N(C)c3ccc4c(C)n(C)nc4c3)n2)cc1S(N)(=O)=O + CC#N + CCCO
solubility (g/100 g solution)
Conditions | 288.15 K | 293.15 K | 298.15 K | 303.15 K | 308.15 K | 313.15 K | 318.15 K | 323.15 K | 328.15 K
x2 = 0.2679 | 0.0118 | 0.0186 | 0.0265 | 0.0356 | 0.0456 | 0.0555 | 0.066 | 0.0779 | 0.0924
x2 = 0.4939 | 0.0196 | 0.031 | 0.0432 | 0.057 | 0.0716 | 0.0875 | 0.104 | 0.123 | 0.145
x2 = 0.6871 | 0.0177 | 0.0276 | 0.0399 | 0.0523 | 0.0687 | 0.0849 | 0.102 | 0.12 | 0.143
x2 = 0.8541 | 0.0117 | 0.0175 | 0.0245 | 0.0326 | 0.0408 | 0.0514 | 0.0625 | 0.075 | 0.0903
